Results as given in patent US7439359B2, “Small molecule compositions for binding to hsp90” (Sloan-Kettering Institute for Cancer Research, priority 2000, dated 2008).
Entries after “also recorded” stand apart in the source; their conditions may differ.

How the values were obtained:
MCF-7 [1] = experiment: Growth inhibition, sulforhodamine B assay; type: cell-based, human; conditions: Homo sapiens, MCF7, 72 hours, unit inferred
From the text: (§1) Protein Assays. […] Antiproliferative index. […] Tissue Culture IC50 Studies. […] Her2 degradation. Total Protein Assays. […] Binding studies. Solid phase competition assays.

MDA-MB-468 [2] = experiment: Growth inhibition, sulforhodamine B assay; type: cell-based, human; conditions: Homo sapiens, MDA-MB-468, 72 hours, unit inferred
From the text: as §1

Raf-1 [3] = experiment: Raf-1 degradation in SKBr3 cells (immunoblot); type: cell-based, human; conditions: SKBr3, 24 hours, 10-250 μM
Experimental: PU4 degraded Her2 at concentrations greater than 50 μM and Raf-1 at a concentration of 250 μM.

Raf-1 [4] = experiment: Raf-1 amount in MCF-7 cells, time course; type: cell-based, human; conditions: MCF-7, 100 μM, 1.5-24 hours
Experimental: (§2) To test the time course of degradation, MCF-7 cells were treated with 100 μM PU3. Aliquots of cells were recovered at 1.5, 3, 6, 12 and 24 hours, and the amount of Her2, Raf-1, Hsp90 and Trap-1 was evaluated.

estrogen receptor = experiment: Estrogen receptor degradation in MCF-7 cells (immunoblot); type: cell-based, human; conditions: MCF-7, 24 hours, 10-250 μM
Hsp90 = Hsp90 levels in MCF-7 cells (Western blotting); type: cell-based, human
Experimental: as §2

Hsp70 = Hsp70 levels in MCF-7 cells (Western blotting); type: cell-based, human
Trap1 = Trap1 levels in MCF-7 cells (Western blotting); type: cell-based, human; conditions: MCF-7, 10-250 μM, 24 hours
MCF-7 [5] = experiment: Growth assay, cell number by coulter counter; type: cell-based, human; conditions: MCF-7, FIG. 14
Experimental: (§3) Cell cultures of MCF-7, SKBr3 and MDA-MB-468 cells were treated with PU3 at one of several concentrations or a DMSO control to test for the occurrence of antiproliferative effects. FIGS. 14A-C show the results of cell number as a function of time.

MDA-MB-468 [6] = experiment: Growth assay, cell number by coulter counter; type: cell-based, human; conditions: MDA-MB-468, FIG. 14
Experimental: as §3

SKBr3 = experiment: Growth assay, cell number by coulter counter; type: cell-based, human; conditions: SKBr3, FIG. 14
Experimental: as §3

MCF-7 cells = experiment: Changes in cell morphology; type: cell-based, human; conditions: MCF-7 cells exposed to drug
From the text: Drugs may also be assayed based upon observed very characteristic changes in cell morphology. […] The increase in size is mostly due to an abundance in cytoplasm. These morphological changes are characteristic of mature epithelial differentiation and reversal of transformation.

[7] = test system: Her2, Raf1, Her3, estrogen receptor (ER), Rb, p85 (PI3K), tubulin and actin; experiment: Western blot of signaling proteins in SKBr3 and MCF-7 cells (differential degradation); type: cell-based, human
Experimental: Cultures of SKBr3 and MCF-7 cells were treated with varying concentrations (0, 10, 50 100, or 250 μM) of PU3 for 24 hours. The cells were lysed and levels of Her2, Raf1, Her3, estrogen receptor (ER), p85 (PI3K), tubulin and actin were analyzed by western blotting. Reduction in the amount of those signaling proteins which depend on hsp90 for their function (Her2, Raf1, Her3 and ER) was observed. No effect was observed on PI3K, tubulin or actin, proteins which are involved in other signaling pathways.

[8] = Safety in mice with MCF-7 xenografts; type: in vivo; conditions: IP
Experimental: (§4) PU3 was tested for its safety and potency in MCF-7 xenografts. […] Mice with established tumors were treated with a single dose of PU3 at doses of 50, 100 and 500 mg/kg i.p. Control mice were treated with DMSO alone. Mice were sacrificed 12 hours post-treatment. For immunoblotting, tumor tissue was homogenized in 2% SDS lysis buffer (pH 7.4).

Her2 [9] = experiment: Her2 levels in MCF-7 xenograft tumor tissue (immunoblotting); type: in vivo, Mice; conditions: single dose 50, 100 and 500 mg/kg i.p., 12 hours post-treatment
Experimental: as §4

PI3 kinase (p85) = PI3 kinase (p85) levels in MCF-7 xenograft tumor tissue (immunoblotting); type: in vivo, Mice; conditions: single dose 50, 100 and 500 mg/kg i.p., 12 hours post-treatment
Experimental: as §4

Hsp90alpha [10] = molecular target: T1, Hsp90alpha (Homo sapiens, UniProt P07900); experiment: PU3-biotin on Sepharose-Streptavidin beads; type: binding; conditions: immobilized PU3-biotin
From the text: (§5) PU3 was linked to Biotin through the middle OH in accordance with the synthetic scheme shown in FIGS. 16A and B. PU3-biotin was immobilized on Sepharose-Streptavidin beads.

Trap-1 = molecular target: T2, Trap-1 (Homo sapiens, UniProt Q12931); experiment: PU3-biotin on Sepharose-Streptavidin beads; type: binding; conditions: immobilized PU3-biotin
T2 sequence (Q12931 60-704): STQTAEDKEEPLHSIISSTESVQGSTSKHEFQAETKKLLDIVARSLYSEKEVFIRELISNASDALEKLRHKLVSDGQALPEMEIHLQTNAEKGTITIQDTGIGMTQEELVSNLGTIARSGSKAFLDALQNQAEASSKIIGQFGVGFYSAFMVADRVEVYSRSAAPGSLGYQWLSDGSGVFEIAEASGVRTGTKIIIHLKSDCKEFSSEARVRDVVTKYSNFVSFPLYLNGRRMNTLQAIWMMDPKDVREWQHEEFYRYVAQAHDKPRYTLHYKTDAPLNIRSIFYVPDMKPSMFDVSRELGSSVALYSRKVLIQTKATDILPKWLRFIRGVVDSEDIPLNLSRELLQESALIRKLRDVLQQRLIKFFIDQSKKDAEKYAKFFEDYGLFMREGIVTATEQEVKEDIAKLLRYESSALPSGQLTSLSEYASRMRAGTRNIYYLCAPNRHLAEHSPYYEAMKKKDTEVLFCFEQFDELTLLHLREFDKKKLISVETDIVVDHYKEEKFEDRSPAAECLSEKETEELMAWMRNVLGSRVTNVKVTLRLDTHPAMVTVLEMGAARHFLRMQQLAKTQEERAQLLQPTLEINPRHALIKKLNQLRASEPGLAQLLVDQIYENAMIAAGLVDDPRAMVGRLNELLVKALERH
From the text: as §5

Hsp90alpha [11] = molecular target: T1, Hsp90alpha; experiment: Solid phase competition assay with GM-beads, Hsp90 alpha immunoblot; type: binding; set-up: purchased Stressgen SPP-770; conditions: competition with immobilized GM; unit inferred; read-out: EC50 Hsp90 α
Experimental: A test was also designed which allows identification of compounds which interact differentially with Hsp90-alpha and Hsp90-beta. […] An Hsp90 protein preparation containing both the alpha and the beta form is incubated with the support in the presence or absence of a compound to be evaluated. […] After washing, the material bound to the support is eluted and the eluate is separated on an SDS/PAGE gel and visualized by immunoblotting with anti-Hsp90-alpha and anti-Hsp90-beta to determine the amount of material bound. Alternatively, if quantitative amounts of the Hsp90 protein preparation or known ratios of alpha to beta forms of Hsp90 are used in the first instance, the unbound material can be analyzed by a similar technique.
as §1

Her2 [12] = experiment: Her2 total protein degradation in MCF-7 cells (immunoblot);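 further: Her2 levels judged by SDS-PAGE western blot of whole-cell lysates probed with anti-Her2 antibody, compared with DMSO vehicle-treated cells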
[13] = MCF-7, 100 μM, within the 24 hour period
[14] = SKBr3 and MCF-7, 10-250 μM, 24 hours

Structure (SMILES): CCCCn1c(Cc2cc(OC)c(OC)c(OC)c2)nc2c(N)ncnc21 [PU3]
- IC50 (MCF-7 [1]): 50 µM
- IC50 (MDA-MB-468 [2]): 61 µM
- Raf-1 degradation (Raf-1 [3]): only partial loss of Raf-1 at 250 μM
- amount of Raf-1 (Raf-1 [4]): did not change significantly
- estrogen receptor degradation (estrogen receptor): partially degraded estrogen receptor at concentrations over 50 μM; also recorded: dose-dependent degradation
- synthesis of Hsp90 (Hsp90; [13]): significant synthesis
- cellular levels of Hsp90 (Hsp90; MCF-7, 10-250 μM, 24 hours): increases the cellular levels of Hsp90 and Hsp70
- synthesis of Hsp70 (Hsp70; [13]): significant synthesis
- cellular levels of Hsp70 (Hsp70; MCF-7, 10-250 μM, 24 hours): increases the cellular levels of Hsp90 and Hsp70
- Trap1 level / band recognized by anti-Trap-1 antibody (Trap1): induces a protein band that migrates more rapidly than Trap-1
- cell number as a function of time (MCF-7 [5]): clearly inhibits growth
- cell number as a function of time (MDA-MB-468 [6]): clearly inhibits growth
- cell number as a function of time (SKBr3): clearly inhibits growth
- cell morphology (MCF-7 cells): flatten, increase in size and have distinct cellular boundaries
- amount of Her2, Raf1, Her3 and ER [7, 14]: Reduction
- amount of PI3K, tubulin or actin [7, 14]: No effect
- Her2 degradation and lower-molecular weight HER-2 band (Example 3 summary) ([7]; cell line not stated): rapid decrease in Her2 levels
- Raf / Her3 degradation (Example 3 summary) ([7]; cell line not stated): less sensitive to PU3, but are degraded at higher concentrations
- dose administered without significant signs of toxicity [8]: up to 500 mg/kg
- Her2 levels in tumor (Her2 [9]): reduction in Her2 levels
- PI3 kinase (p85) levels in tumor (PI3 kinase (p85)): No change
- interaction with Hsp90alpha (Hsp90alpha [10]): interaction of PU3 with the Trap-1 and Hsp90alpha
- interaction with Trap-1 (Trap-1): interaction of PU3 with the Trap-1 and Hsp90alpha
- IC50 (Her2 [12]; Homo sapiens, MCF7, read-out: IC50 Her2/MCF-7): 55 µM
- Her2 lost (Her2 [12]; MCF-7, 100 μM, within 3 hours of administration): more than 50%
